Key:
[1] = system: IL-23 secretion; experiment: Inhibition of IL-23 secretion in monocytes THP-1 (LPS and IFN-γ, ELISA); assay type: cell-based, human
Method: The study was conducted to assess anti-inflammatory potential of test item, IS217 in human monocytic cell line (THP-1) by assessing percentage inhibition of IL-23 in monocytes by using ELISA method.
Curcumin was taken as positive control for in-house validation. For determining inhibitory activity against IL-23 secretion, human monocytic cell line (THP-1) was treated with concentration range of 10-5000 μg/ml with LPS (1 μg/ml) and IFN-γ. LPS (1 μg/ml) and IFN-γ (100 ng/ml) alone were taken as a positive control. After about 24 hours of incubation, IL-23 levels were estimated by ELISA in supernatants corresponding to non-cytotoxic concentrations at 10 to 5000 μg/ml and absorbance of samples was determined by using ELISA reader.

[2] = system: IL-17 secretion; experiment: IL-17 inhibition in ConA stimulated splenocytes (ELISA); assay type: cell-based, C57BL/6 mice; conditions: Mus musculus, Splenocyte, read-out: inhibition of IL-17 w.r.t. control (ConA) levels
Method: The study was conducted to assess anti-inflammatory potential of test item IS217 in murine splenocytes isolated from C57BL/6 mice for assessing percentage inhibition of IL-17 in splenocytes by using ELISA method. […] Curcumin was taken as positive control for in-house validation.
For determining inhibitory activity against IL-17 secretion level, splenocytes cells were treated with the concentration range of 10 to 5000 μg/ml along with Con A stimulation (5 μg/ml), Con A alone treated cells were used as a positive control. After incubating for about 24 hours, IL-17 levels were estimated by ELISA corresponding to non-cytotoxic concentrations at 10 to 2000 μg/ml and absorbance of samples was determined by using ELISA reader.

[3] = system: VEGF secretion; experiment: cells; conditions: Homo sapiens, HaCaT, read-out: inhibition of VEGF
[4] = system: HaCaT cells; experiment: TUNEL assay; assay type: cell-based, human; conditions: 48 h
Method: Terminal deoxynucleotidyl transferase (TdT) dUTP Nick-End Labeling (TUNEL) assay has been designed to detect apoptotic cells that undergo extensive DNA degradation during the late stages of apoptosis. […] Cells were treated with test item (IS217 of 100 μg/ml-5000 μg/ml) and positive controls like curcumin (10 μM and 20 μM), anthralin (1 μM) and betullininc acid (10 μg/ml, 20 μg/ml, 50 μg/ml). After about 48 hours of treatment, cells were analysed for the apoptotic effect via TUNEL assay. Absorbance was measured using ELISA reader (Table 1).

[5] = system: TPA induced ear inflammation model in C57BL/6 mice; experiment: IS217 alone and in combination with methotrexate and betamethasone in TPA induced ear inflammation model; assay type: in vivo
Method: The experimental procedure, doses and route of administration were same as IMQ model. Test item IS217 was administered subcutaneously either alone or in combination with standard methotrexate (MTX) and betamethasone (BD) to diseased animals.

[6] = system: human keratinocytes (HaCaT) cells; experiment: Cytotoxicity of methotrexate in combination with IS217, combination index method (MTT); assay type: cell-based; conditions: methotrexate alone 0.01-5 μM, 72 h
Method: Assessment of cytotoxicity of methotrexate in combination with IS217 on proliferation of human keratinocytes (HaCaT) cells was performed by using combination index method. HaCaT cell line is maintained by using DMEM, 10% FBS, CO2 incubator and after overnight incubation cells were replenished by using about 1% FBS and then the cells were treated with different concentrations (0.01, 0.1, 0.25, 0.5, 1, 5 μM) of methotrexate alone, IS217 (10, 50, 500, 1000, 2000, 5000 μg/ml) alone, combination of methotrexate (0.01, 0.1, 0.25, 0.5, 1, 5 μM) and IS217 (10, 50, 500, 1000, 2000, 5000 μg/ml) to achieve different combinations.
IS217 was added to the above combinations every 24 hours (i.e., three doses) whereas methotrexate was added only once in 72 hours during the 72 hours of incubation. Then the plates were subjected for MTT assay and percentage inhibition (cytotoxicity) corresponding to each treatment was calculated.

[7] = system: HUVEC cells; experiment: Tube formation assay in HUVEC cells (VEGF induced); assay type: cell-based, human; design: Tube formation assay results, Avg: scale not given here
Method: HUVEC cells were used as test system to determine angiogenic effect of IS217 by assessing the inhibitory effects of test item on endothelial cells tube formation. Prior to the tube formation assay, test item of concentration ranging 0.01 μg/ml to 1000 μg/ml were used to treat endothelial cells for its cytotoxicity effect to assess suitable concentration for tube formation assay. […] The cells corresponding to positive control group were treated with bevacizumab of concentration 1000 μg/ml. The degree of angiogenesis progression was assessed based on visual pattern recognition of photomicrographs of HUVEC cells.

[8] = system: VEGF secretion; experiment: Inhibition of VEGF secretion in HUVEC cells; assay type: cell-based, human; conditions: 1 mg/ml
Method: The study was conducted to evaluate anti-angiogenic effect of IS217 in HUVEC cells. […] Bevacizumab (1 mg/mL) was taken as positive control for validation purpose.

COc1cc(/C=C/C(=O)CC(=O)/C=C/c2ccc(O)c(OC)c2)ccc1O [Curcumin]
inhibition at 10 µM ([1]; Homo sapiens, THP-1, curcumin 10 μM, read-out: inhibition of IL-23 w.r.t. control LPS and IFN-γ levels): 91.6% | inhibition of IL-23 w.r.t. control LPS and IFN-γ levels ([1]; curcumin, second concentration not given): 90.6% | inhibition at 1 µM ([2]; curcumin 1 μM): 40.5% | inhibition at 10 µM ([2]; curcumin 10 μM): 42.5% | inhibition at 1 µM [3]: 22.8% | % increase in TUNEL-Positive cell population w.r.t. control (untreated cells) ([4]; 10 μM): −72.2% | % increase in TUNEL-Positive cell population w.r.t. control (untreated cells) ([4]; 20 μM): −76.1%

CN(Cc1cnc2nc(N)nc(N)c2n1)c1ccc(C(=O)N[C@@H](CCC(=O)O)C(=O)O)cc1 [methotrexate, reference compound]
inhibitory activity against TPA induced increase in ear thickness ([5]; MTX 0.75 mg/kg): 24.95% | inhibitory activity against TPA induced increase in ear thickness ([5]; MTX 1.5 mg/kg): 46.06% | 50% inhibition of cell proliferation (IC50) [6]: not achieved

O=C1c2c(O)cccc2Cc2cccc(O)c21 [Anthralin, reference compound]
% increase in TUNEL-Positive cell population w.r.t. control (untreated cells) ([4]; 1 μM): −87.0%

C=C(C)[C@@H]1CC[C@]2(C(=O)O)CC[C@]3(C)[C@H](CC[C@@H]4[C@@]5(C)CC[C@H](O)C(C)(C)[C@@H]5CC[C@]43C)[C@@H]12 [BA, betullininc acid, reference compound]
% increase in TUNEL-Positive cell population w.r.t. control (untreated cells) ([4]; 10 μg/ml): 21.3% | % increase in TUNEL-Positive cell population w.r.t. control (untreated cells) ([4]; 20 μg/ml): 48.2% | % increase in TUNEL-Positive cell population w.r.t. control (untreated cells) ([4]; 50 μg/ml): 61.6%

CC1=C(/C=C/C(C)=C/C=C/C(C)=C/C(=O)O)C(C)(C)CCC1 [retinoic acid]
inhibition at 1 µM [3]: 22.8%

Bevacizumab: positive control, commercial formulation Avastin®, anti-VEGF
Tube formation assay results, Avg ([7]; Bevacizumab + VEGF): 0.44 | Tube formation assay results, Avg ([7]; Bevacizumab, without VEGF): 0.33 | inhibition of tube formation as compared to VEGF stimulation control ([7]; HUVEC, bevacizumab 1000 μg/ml): 91.1% | inhibition of VEGF [8]: 94.51%
